In one experiment the test system is E. coli ATCC #51813. In words: Antibacterial efficacy test, Relative Light Unit (RLU) counts (ATP). The experiment is classed as cell-based. How it is done: The NIST nanoparticles are formed by a chemical reduction process that utilizes citrate as reducing and capping agent.
Relative Light Unit (RLU) counts were recorded at 12 hours and 24 hours post treatment. RLU measurements were carried out using a Hygiena SystemSURE Plus V.2 SN067503 RLU meter with Hygenia AquaSnap TOTAL ATP Water Test Cat #U143 Lot #153019. Culturing media was Hardy Diagnostics Buffered Peptone Water Lot #118272. Samples were prepared with the nanoparticle treatments and then diluted with the media to provide the tested concentrations. The test organism (Microbiologics, E. coli, KwikStik, ATCC #51813, Ref #0791 K, Lot #791-1-6) was incubated in fresh Buffered Peptone Water growth media for 24 hours prior to exposure to the nanoparticle treatments.

Experiment [1] can be described thus: Efficacy test comparing Attostat Ag to tobramycin (colony reduction). The experiment is classed as cell-based. Particulars: 4 μg/mL Attostat Ag vs 20 μg/mL tobramycin. On the procedure:
Efficacy tests similar to those of Examples 5 and 6 were performed to compare the efficacy of Attostat Ag to tobramycin. […]

Take `O=[N+]([O-])[O-].[Ag+]` [AgNO3 Silver Nitrate, silver nitrate]: the “RLU Counts at 12 Hours Post Exposure” value with E. coli ATCC #51813 (0.25 ppm (mg/L)) came out at 80 RLU; with E. coli ATCC #51813 (0.5 ppm (mg/L)) it was 75 RLU; with E. coli ATCC #51813 (1.0 ppm (mg/L)), 84 RLU. Besides, the “RLU Counts at 24 Hours Post Exposure” value with E. coli ATCC #51813 (0.25 ppm (mg/L)) turned out to be 25 RLU; in the experiment with E. coli ATCC #51813 (0.5 ppm (mg/L)), 46 RLU; in the experiment with E. coli ATCC #51813 (1.0 ppm (mg/L)), 30 RLU.
Regarding `NC[C@H]1O[C@H](O[C@H]2[C@H](O)[C@@H](O[C@H]3O[C@H](CO)[C@@H](O)[C@H](N)[C@H]3O)[C@H](N)C[C@@H]2N)[C@H](N)C[C@@H]1O` [tobramycin], the “colony reduction, comparison” value in experiment [1] was “equal colony reduction”.

The record behind these values is US12115250B2, “Use of nanoparticles for treating respiratory infections associated with cystic fibrosis” (EVOQ NANO, INC., priority 2019, dated 2024).
